Columns and labels:
Experiment in all cases: relative viability (nuclei count vs DMSO), 5 days (fraction); higher = more cells survive
NCI-H1792 = tested on: NCI-H1792
In short: (§1)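 Each reported value is a median over duplicate plates. It expresses relative viability: treated-well nuclei count divided by vehicle-well nuclei count. Lung cancer cell lines in 1536-well plates were dosed by pin tool a day after seeding, alone with one drug or with a fixed anchor-drug dose plus five library-drug doses (not always all listed) in √10 steps, and nuclei were counted after 5 days.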

SK-MES-1 = tested on: SK-MES-1
In short: as §1

NCI-H2342 = tested on: NCI-H2342
In short: as §1

NCI-H1395 = tested on: NCI-H1395
In short: as §1

NCI-H23 = tested on: NCI-H23
In short: as §1

COR-L23 = tested on: COR-L23
In short: as §1

NCI-H2009 = tested on: NCI-H2009
In short: as §1

LC-2-ad = tested on: LC-2-ad
In short: as §1

NCI-H358 = tested on: NCI-H358
In short: as §1

NCI-H2023 = tested on: NCI-H2023
In short: as §1

NCI-H1755 = tested on: NCI-H1755
In short: as §1

HCC-366 = tested on: HCC-366
In short: as §1

EMC-BAC-2 = tested on: EMC-BAC-2
In short: as §1

NCI-H2347 = tested on: NCI-H2347
In short: as §1

NCI-H650 = tested on: NCI-H650
In short: as §1

NCI-H1437 = tested on: NCI-H1437
In short: as §1

COR-L 105 = tested on: COR-L 105
In short: as §1

NCI-H1915 = tested on: NCI-H1915
In short: as §1

PC-14 = tested on: PC-14
In short: as §1

HCC-15 = tested on: HCC-15
In short: as §1

NCI-H1793 = tested on: NCI-H1793
In short: as §1

201T = tested on: 201T
In short: as §1

Molecule `CCNC(=O)c1noc(-c2cc(C(C)C)c(O)cc2O)c1-c1ccc(CN2CCOCC2)cc1` [Luminespib] + COc1cccc2cc(-c3nc([C@H]4CC[C@H](C(=O)O)CC4)n4ncnc(N)c34)[nH]c12 [OSI-027] (partner 0.5 µM) has a relative viability (NCI-H1792; first compound 0.002 µM) of 0.637, a relative viability (NCI-H1792; first compound 0.006325 µM) of 0.618 and a relative viability (NCI-H1792; first compound 0.02 µM) of 0.509. For the same molecule, the relative viability (NCI-H1792; first compound 0.06325 µM) was 0.26, the relative viability (NCI-H1792; first compound 0.2 µM) was 0.229 and the relative viability (SK-MES-1; first compound 0.002 µM) was 0.609. For the same molecule, the relative viability (SK-MES-1; first compound 0.006325 µM) was 0.486, the relative viability (SK-MES-1; first compound 0.02 µM) was 0.2 and the relative viability (SK-MES-1; first compound 0.06325 µM) was 0.11. For the same molecule, the relative viability (SK-MES-1; first compound 0.2 µM) was 0.131, the relative viability (NCI-H2342; first compound 0.002 µM) was 0.623 and the relative viability (NCI-H2342; first compound 0.006325 µM) was 0.586. The relative viability (NCI-H2342; first compound 0.02 µM) was 0.545, the relative viability (NCI-H2342; first compound 0.06325 µM) was 0.569 and the relative viability (NCI-H2342; first compound 0.2 µM) was 0.397. The relative viability (NCI-H1395; first compound 0.002 µM) was 0.704, the relative viability (NCI-H1395; first compound 0.006325 µM) was 0.632 and the relative viability (NCI-H1395; first compound 0.02 µM) was 0.512. It also gave a relative viability (NCI-H1395; first compound 0.06325 µM) of 0.337, a relative viability (NCI-H1395; first compound 0.2 µM) of 0.321 and a relative viability (NCI-H23; first compound 0.002 µM) of 0.503. The relative viability (NCI-H23; first compound 0.006325 µM) was 0.508, the relative viability (NCI-H23; first compound 0.02 µM) was 0.322 and the relative viability (NCI-H23; first compound 0.06325 µM) was 0.133. The relative viability (NCI-H23; first compound 0.2 µM) was 0.136, the relative viability (COR-L23; first compound 0.002 µM) was 0.925 and the relative viability (COR-L23; first compound 0.006325 µM) was 0.655. The relative viability (COR-L23; first compound 0.02 µM) was 0.508, the relative viability (COR-L23; first compound 0.06325 µM) was 0.079 and the relative viability (COR-L23; first compound 0.2 µM) was 0.0776. For the same molecule, the relative viability (NCI-H2009; first compound 0.002 µM) was 0.773, the relative viability (NCI-H2009; first compound 0.006325 µM) was 0.534 and the relative viability (NCI-H2009; first compound 0.02 µM) was 0.518. The relative viability (NCI-H2009; first compound 0.06325 µM) was 0.0609, the relative viability (NCI-H2009; first compound 0.2 µM) was 0.0769 and the relative viability (LC-2-ad; first compound 0.002 µM) was 0.806. It also gave a relative viability (LC-2-ad; first compound 0.006325 µM) of 0.822, a relative viability (LC-2-ad; first compound 0.02 µM) of 0.569 and a relative viability (LC-2-ad; first compound 0.06325 µM) of 0.259. It also gave a relative viability (LC-2-ad; first compound 0.2 µM) of 0.28, a relative viability (NCI-H358; first compound 0.002 µM) of 0.9 and a relative viability (NCI-H358; first compound 0.006325 µM) of 0.747. It also gave a relative viability (NCI-H358; first compound 0.02 µM) of 0.362, a relative viability (NCI-H358; first compound 0.06325 µM) of 0.0472 and a relative viability (NCI-H358; first compound 0.2 µM) of 0.0538. For the same molecule, the relative viability (NCI-H2023; first compound 0.002 µM) was 0.44, the relative viability (NCI-H2023; first compound 0.006325 µM) was 0.374 and the relative viability (NCI-H2023; first compound 0.02 µM) was 0.131. It also gave a relative viability (NCI-H2023; first compound 0.06325 µM) of 0.0545, a relative viability (NCI-H2023; first compound 0.2 µM) of 0.0624 and a relative viability (NCI-H1755; first compound 0.002 µM) of 0.768. For the same molecule, the relative viability (NCI-H1755; first compound 0.006325 µM) was 0.707, the relative viability (NCI-H1755; first compound 0.02 µM) was 0.626 and the relative viability (NCI-H1755; first compound 0.06325 µM) was 0.206. It also gave a relative viability (NCI-H1755; first compound 0.2 µM) of 0.113, a relative viability (HCC-366; first compound 0.002 µM) of 1.11 and a relative viability (HCC-366; first compound 0.006325 µM) of 0.832. It also gave a relative viability (HCC-366; first compound 0.02 µM) of 0.698, a relative viability (HCC-366; first compound 0.06325 µM) of 0.0495 and a relative viability (HCC-366; first compound 0.2 µM) of 0.0391. For the same molecule, the relative viability (EMC-BAC-2; first compound 0.002 µM) was 0.426, the relative viability (EMC-BAC-2; first compound 0.006325 µM) was 0.354 and the relative viability (EMC-BAC-2; first compound 0.02 µM) was 0.415. It also gave a relative viability (EMC-BAC-2; first compound 0.06325 µM) of 0.348, a relative viability (EMC-BAC-2; first compound 0.2 µM) of 0.184 and a relative viability (NCI-H2347; first compound 0.002 µM) of 0.414. It also gave a relative viability (NCI-H2347; first compound 0.006325 µM) of 0.355, a relative viability (NCI-H2347; first compound 0.02 µM) of 0.41 and a relative viability (NCI-H2347; first compound 0.06325 µM) of 0.185. For the same molecule, the relative viability (NCI-H2347; first compound 0.2 µM) was 0.227, the relative viability (NCI-H650; first compound 0.002 µM) was 0.477 and the relative viability (NCI-H650; first compound 0.006325 µM) was 0.545. It also gave a relative viability (NCI-H650; first compound 0.02 µM) of 0.378, a relative viability (NCI-H650; first compound 0.06325 µM) of 0.368 and a relative viability (NCI-H650; first compound 0.2 µM) of 0.109. The relative viability (NCI-H1437; first compound 0.002 µM) was 0.838, the relative viability (NCI-H1437; first compound 0.006325 µM) was 0.845 and the relative viability (NCI-H1437; first compound 0.02 µM) was 0.466. It also gave a relative viability (NCI-H1437; first compound 0.06325 µM) of 0.57, a relative viability (NCI-H1437; first compound 0.2 µM) of 0.187 and a relative viability (COR-L 105; first compound 0.002 µM) of 0.775. The relative viability (COR-L 105; first compound 0.006325 µM) was 0.619, the relative viability (COR-L 105; first compound 0.02 µM) was 0.331 and the relative viability (COR-L 105; first compound 0.06325 µM) was 0.162. The relative viability (COR-L 105; first compound 0.2 µM) was 0.176, the relative viability (NCI-H1915; first compound 0.002 µM) was 0.596 and the relative viability (NCI-H1915; first compound 0.006325 µM) was 0.502. It also gave a relative viability (NCI-H1915; first compound 0.02 µM) of 0.517, a relative viability (NCI-H1915; first compound 0.06325 µM) of 0.243 and a relative viability (NCI-H1915; first compound 0.2 µM) of 0.0689. It also gave a relative viability (PC-14; first compound 0.002 µM) of 0.918, a relative viability (PC-14; first compound 0.006325 µM) of 0.598 and a relative viability (PC-14; first compound 0.02 µM) of 0.11. The relative viability (PC-14; first compound 0.06325 µM) was 0.0462, the relative viability (PC-14; first compound 0.2 µM) was 0.0587 and the relative viability (HCC-15; first compound 0.002 µM) was 0.686. It also gave a relative viability (HCC-15; first compound 0.006325 µM) of 0.644, a relative viability (HCC-15; first compound 0.02 µM) of 0.556 and a relative viability (HCC-15; first compound 0.06325 µM) of 0.0983. The relative viability (HCC-15; first compound 0.2 µM) was 0.0973, the relative viability (NCI-H1793; first compound 0.002 µM) was 0.257 and the relative viability (NCI-H1793; first compound 0.006325 µM) was 0.246. It also gave a relative viability (NCI-H1793; first compound 0.02 µM) of 0.199, a relative viability (NCI-H1793; first compound 0.06325 µM) of 0.125 and a relative viability (NCI-H1793; first compound 0.2 µM) of 0.112. It also gave a relative viability (201T; first compound 0.002 µM) of 0.756, a relative viability (201T; first compound 0.02 µM) of 0.668 and a relative viability (201T; first compound 0.06325 µM) of 0.492. It also gave a relative viability (201T; first compound 0.2 µM) of 0.159.
